Laboratory results published in patent US7705030B2, “Amino-5-(5-membered)hetero-arylimidazolone compounds and the use thereof for β-secretase modulation” (Wyeth LLC, priority 2005, dated 2010).
Counter-ions that a name gives are not always drawn.

target: human BACE1 (Homo sapiens, UniProt P56817); assay: Fluorescent kinetic assay: Evaluation of BACE-1 Binding Affinity of Test Compounds; type: biochemical; conditions: 10 nM enzyme, 25 μM substrate WABC-6, 50 mM Na-Acetate pH 4.5, room temperature
Sequence (P56817 46-501): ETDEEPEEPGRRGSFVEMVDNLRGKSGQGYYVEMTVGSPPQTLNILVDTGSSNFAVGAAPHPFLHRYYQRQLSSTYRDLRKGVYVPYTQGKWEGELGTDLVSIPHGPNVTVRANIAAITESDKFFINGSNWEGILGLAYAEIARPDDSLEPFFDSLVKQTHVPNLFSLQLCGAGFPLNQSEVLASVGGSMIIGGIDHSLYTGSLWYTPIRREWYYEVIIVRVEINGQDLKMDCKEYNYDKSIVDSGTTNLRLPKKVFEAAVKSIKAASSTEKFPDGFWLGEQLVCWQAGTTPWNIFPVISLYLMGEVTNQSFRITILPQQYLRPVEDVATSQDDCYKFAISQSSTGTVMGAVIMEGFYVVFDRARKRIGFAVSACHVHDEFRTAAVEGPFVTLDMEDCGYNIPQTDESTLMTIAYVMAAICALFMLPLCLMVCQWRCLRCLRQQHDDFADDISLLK
Description: Evaluation of BACE-1 Binding Affinity of Test Compounds
Fluorescent Kinetic Assays
Final Assay Conditions: 10 nM human BACE1 (or 10 nM Murine BACE1, 1.5 nM human BACE2), 25 μM substrate (WABC-6, MW 1549.6, from AnaSpec), Buffer: 50 mM Na-Acetate, pH 4.5, 0.05% CHAPS, 25% PBS, room temperature. Na-Acetate was from Aldrich, Cat.# 24, 124-5, CHAPS was from Research Organics, Cat. # 1304C 1×, PBS was from Mediatech (Cellgro), Cat# 21-031-CV, peptide substrate Abz[…]pa was from AnaSpec, Peptide Name: WABC-6 Determination of stock substrate (Abz[…]pa) concentration: ˜25 mM stock solution is made in DMSO using the peptide weight and MW, and diluted to ˜25 μM (1:1000) in 1×PBS. Concentration is determined by absorbance at 354 nm using an extinction coefficient ε of 18172 M^−1 cm^−1, the concentration of stock substrate is corrected, and the substrate stock stored in small aliquots in −80° C. [Substrate Stock]=ABS^354 nm*10^6/18172 (in […]) The extinction coefficient ε^354 nm was adapted from TACE peptide substrate, which had the same quencher-fluorophore pair.
Determination of Stock Enzyme Concentration: the stock concentration of each enzyme is determined by absorbance at 280 nm using an ε of 64150 M^−1 cm^−1 for hBACE1 and MuBACE1, 62870 M^−1 cm^−1 for hBACE2 in 6 M Guanidinium Hydrochloride (from Research Organics, Cat. # 5134G-2), pH ˜6. The extinction coefficient ε^280 nm for each enzyme was calculated based on known amino acid composition and published extinction coefficients for Trp ([…]) and Tyr ([…]) residues (Anal. Biochem. 182, 319-326).
Dilution and mixing steps: total reaction volume: 100 μL
2× inhibitor dilutions in buffer A(66.7 mM Na-Acetate, pH 4.5, 0.0667% CHAPS) were prepared,
4× enzyme dilution in buffer A(66.7 mM Na-Acetate, pH 4.5, 0.0667% CHAPS) were prepared,
100 μM substrate dilution in 1×PBS was prepared, and
50 μL 2× Inhibitor, 25 μL 100 μM substrate are added to each well of 96-well plate (from DYNEX Technologies, VWR #: 11311-046), immediately followed by 25 μL 4× enzyme (added to the inhibitor and substrate mix), and the fluorescence readings are initiated.
Fluorescence Readings: Readings at λex 320 nm and λem 420 nm are taken every 40 sec for 30 min at room temperature and the linear slope for substrate cleavage rate (vi) determined.
Testing at least 10 different inhibitor concentrations is preferred.

IC50 | Compound
> 1000 nM | CCC(=O)c1cc([C@@]2(c3cccc(-c4cccnc4F)c3)N=C(N)N(C)C2=O)cn1CC1CC1 [251 B]
> 1000 nM | CCC(=O)c1cc([C@@]2(c3cccc(-c4cc(F)cnc4F)c3)N=C(N)N(C)C2=O)cn1CCF [242 B]
110 to 1000 nM | CCC(=O)c1cc([C@@]2(c3cccc(-c4cccnc4F)c3)N=C(N)N(C)C2=O)cs1 [244 B]
10 to 100 nM | CN1C(=O)C(c2ccsc2)(c2ccc(F)c(-c3cccnc3F)c2)N=C1N (centres unmarked) [Example 39]
> 1000 nM | CCn1cc([C@@]2(c3cccc(-c4cccnc4F)c3)N=C(N)N(C)C2=O)cn1 [Example 44A, (5R)-2-Amino-5-(1-ethyl-1H-pyrazol-4-yl)-5-[3-(2-fluoropyridin-3-yl)phenyl]-3-methyl-3,5-dihydro-4H-imidazol-4-one]
10 to 100 nM | CCCn1cc([C@]2(c3cccc(-c4cccnc4F)c3)N=C(N)N(C)C2=O)cc1C(=O)CC [254 A]
10 to 100 nM | CCC(=O)c1cc([C@]2(c3cccc(-c4cccnc4F)c3)N=C(N)N(C)C2=O)cs1 [244 A]
110 to 1000 nM | CCC(=O)c1cc(C2(c3cccc(Br)c3)N=C(N)N(C)C2=O)cn1CCF (centres unmarked) [Example 150, 2-Amino-5-[3-bromophenyl]-5-[1-(2-fluoroethyl)-5-propionyl-1H-pyrrol-3-yl)-3-methyl-3,5-dihydro-4H-imidazol-4-one]
10 to 100 nM | CCC(=O)c1cc([C@]2(c3cccc(-c4cccnc4F)c3)N=C(N)N(C)C2=O)cn1CC(F)(F)F [Example 224A, (5S)-2-amino-5-[3-(2-fluoropyridin-3-yl)phenyl]-3-methyl-5-[5-propionyl-1-(2,2,2-trifluoroethyl)-1H-pyrrol-3-yl]-3,5-dihydro-4H-imidazol-4-one]
10 to 100 nM | CCn1cc(C2(c3cncnc3)N=C(N)N(C)C2=O)cn1 (centres unmarked) [Example 42, 2-Amino-5-(1-ethyl-1H-pyrazol-4-yl)-3-methyl-5-(3-pyrimidin-5-yl)-3,5-dihydro-4H-imidazol-4-one]
10 to 100 nM | CCn1cc([C@]2(c3cccc(-c4cccnc4F)c3)N=C(N)N(C)C2=O)cn1 [Example 44B, (5S)-2-Amino-5-(1-ethyl-1H-pyrazol-4-yl)-5-[3-(2-fluoropyridin-3-yl)phenyl]-3-methyl-3,5-dihydro-4H-imidazol-4-one]
10 to 100 nM | CCn1cc(C2(c3cccc(-c4cncc(Cl)c4)c3)N=C(N)N(C)C2=O)cn1 (centres unmarked) [Example 46, 2-Amino-5-[3-(5-chloropyridin-3-yl)phenyl]-5-(1-ethyl-1H-pyrazol-4-yl)-3-methyl-3,5-dihydro-imidazol-4-one]
10 to 100 nM | CCn1cc([C@]2(c3cccc(-c4cccnc4F)c3)N=C(N)N(C)C2=O)cc1C(=O)C1CC1 [243 A]
10 to 100 nM | CCC(=O)c1cc(C2(c3cccc(-c4cccnc4F)c3)N=C(N)N(C)C2=O)cn1CCC(C)C (centres unmarked) [Example 153]
110 to 1000 nM | COc1ccc(C2(c3cc(-c4ccc(F)cc4)cs3)N=C(N)N(C)C2=O)cc1C (centres unmarked) [Example 111, 2-Amino-5-[4-(4-fluorophenyl)thien-2-yl]-5-(4-methoxy-3-methylphenyl)-3-methyl-3,5-dihydro-4H-imidazol-4-one]
> 1000 nM | CC(=O)c1cc([C@]2(c3ccccc3)N=C(N)N(C)C2=O)cn1C [249 A]
10 to 100 nM | CN1C(=O)C(c2ccsc2)(c2ccc(F)c(-c3cccnc3)c2)N=C1N (centres unmarked) [Example 40]
> 1000 nM | CCC(=O)c1cc([C@@]2(c3cccc(-c4cccnc4F)c3)N=C(N)N(C)C2=O)cn1CC(F)(F)F [Example 224B, (5R)-2-amino-5-[3-(2-fluoropyridin-3-yl)phenyl]-3-methyl-5-[5-propionyl-1-(2,2,2-trifluoroethyl)-1H-pyrrol-3-yl]-3,5-dihydro-4H-imidazol-4-one]
10 to 100 nM | CCC(=O)c1cc([C@]2(c3cccc(-c4cccnc4F)c3)N=C(N)N(C)C2=O)cn1CC(F)F [253 A]
10 to 100 nM | CCC(=O)c1cc([C@]2(c3cccc(-c4cccnc4F)c3)N=C(N)N(C)C2=O)cn1CCCF [255 A]

IC50 | Compound
> 1000 nM | CC(=O)c1cc([C@@]2(c3ccccc3)N=C(N)N(C)C2=O)cn1C [249 B]
> 1000 nM | CCC(=O)c1cc([C@@]2(c3ccc(F)c(-c4cccnc4F)c3)N=C(N)N(C)C2=O)cn1CC [Example 183B, (5R)-2-Amino-5-(1-ethyl-5-propionyl-1H-pyrrol-3-yl)-5-[4-fluoro-3-(2-fluoropyridin-3-yl)phenyl]-3-methyl-3,5-dihydro-4H-imidazol-4-one]
110 to 1000 nM | COC(=O)c1cc([C@@]2(c3ccc(F)c(-c4cccnc4F)c3)N=C(N)N(C)C2=O)cn1CCF [Example 184B, Methyl 4-{(4R)-2-amino-4-[4-fluoro-3-(2-fluoropyridin-3-yl)phenyl]-1-methyl-5-oxo-4,5-dihydro-1H-imidazol-4-yl}-1-(2-fluoroethyl)-1H-pyrrole-2-carboxylate]
10 to 100 nM | CCC(=O)c1cc([C@]2(c3cccc(-c4cc(F)cnc4F)c3)N=C(N)N(C)C2=O)cn1CCF [242 A]
> 1000 nM | CCC(=O)c1cc([C@@]2(c3cccc(-c4cccnc4F)c3)N=C(N)N(C)C2=O)cn1CCF [256 B]
> 1000 nM | CCCn1cc([C@@]2(c3cccc(-c4cccnc4F)c3)N=C(N)N(C)C2=O)cc1C(=O)CC [254 B]
10 to 100 nM | CCC(=O)c1cc(C2(c3cccc(-c4cccnc4F)c3)N=C(N)N(C)C2=O)c[nH]1 (centres unmarked) [Example 154]
10 to 100 nM | CCC(=O)c1cc([C@]2(c3cccc(-c4cccnc4F)c3)N=C(N)N(C)C2=O)cn1CCF [256 A]
10 to 100 nM | CCn1cc(C2(c3cccc(-c4cccnc4F)c3)N=C(N)N(C)C2=O)cn1 (centres unmarked) [Example 43, 2-Amino-5-(1-ethyl-1H-pyrazol-4-yl)-5-[3-(2-fluoro-pyridin-3-yl)-phenyl]-3-methyl-3,5-dihydro-imidazol-4-one]
10 to 100 nM | CCn1cc(C2(c3cccc(-c4cncc(F)c4)c3)N=C(N)N(C)C2=O)cn1 (centres unmarked) [Example 45, 2-Amino-5-(1-ethyl-1H-pyrazol-4-yl)-5-[3-(5-fluoro-pyridin-3-yl)-phenyl]-3-methyl-3,5-dihydro-imidazol-4-one]
110 to 1000 nM | COC(=O)c1cc([C@@]2(c3cccc(-c4cccnc4F)c3)N=C(N)N(C)C2=O)cn1CCF [257 B]
> 1000 nM | CCCCc1ccc(C2(c3ccccc3)N=C(N)N(C)C2=O)s1 (centres unmarked) [Example 109, 2-Amino-5-(5-butylthien-2-yl)-3-methyl-5-phenyl-3,5-dihydro-4H-imidazol-4-one]
10 to 100 nM | COC(=O)c1cc([C@]2(c3ccc(F)c(-c4cncnc4)c3)N=C(N)N(C)C2=O)cn1CC(F)(F)F [258 A]
10 to 100 nM | CC(=O)Cc1cc([C@]2(c3cccc(-c4cccnc4F)c3)N=C(N)N(C)C2=O)cn1CCCF [Example 248, (5S)-2-Amino-5-[1-(3-fluoropropyl)-5-(2-oxopropyl)-1H-pyrrol-3-yl]-5-[3-(2-fluoropyridin-3-yl)phenyl]-3-methyl-3,5-dihydro-4H-imidazol-4-one]
10 to 100 nM | COC(=O)c1cc([C@]2(c3cccc(-c4cccnc4F)c3)N=C(N)N(C)C2=O)cn1CCF [257 A]
110 to 1000 nM | COc1ncccc1-c1cc(C2(c3ccsc3)N=C(N)N(C)C2=O)ccc1F (centres unmarked) [Example 38]
10 to 100 nM | CCC(=O)c1cc(C2(c3cccc(-c4cc(F)cnc4F)c3)N=C(N)N(C)C2=O)cn1CCF (centres unmarked) [Example 151, 2-Amino-5-[3-(2,5-difluoropyridin-3-yl)phenyl]-5-[1-(2-fluoro-ethyl)-5-propionyl-1H-pyrrol-3-yl)-3-methyl-3,5-dihydro-4H-imidazol-4-one]
> 1000 nM | CCn1cc([C@@]2(c3cccc(-c4cccnc4F)c3)N=C(N)N(C)C2=O)cc1C(=O)C1CC1 [243 B]
10 to 100 nM | CCn1cc(C2(c3cccc(-c4cccnc4F)c3)N=C(N)N(C)C2=O)cc1/C=N/OC (centres unmarked) [Example 241, 4-[2-Amino-4-[3-(2-fluoropyridin-3-yl)phenyl]-1-methyl-5-oxo-4,5-dihydro-1H-imidazol-4-yl]-1-ethyl-1H-pyrrole-2-carbaldehyde O-methyloxime hydrochloride]
10 to 100 nM | CCC(=O)c1cc([C@]2(c3cccc(-c4cccnc4F)c3)N=C(N)N(C)C2=O)cn1CC1CC1 [251 A]

Compound | IC50
CN1C(=O)C(c2cccc(-c3cncnc3)c2)(c2cnn(C)c2)N=C1N (centres unmarked) [Example 1, 2-Amino-3-methyl-5-(1-methyl-1H-pyrazol-4-yl)-5-(3-pyrimidin-5-ylphenyl)-3,5-dihydro-4-imidazol-4-one] | 110 to 1000 nM
